Experimental data: EP0638573A1, “Crystalline hydrates of cephalosporin and process for preparation thereof” (LUCKY LTD., priority 1993, dated 1995)
Converted amounts (≈) assume the structure as drawn. Read-outs that look alike come from different tables or passages of the source.

How the values were obtained:
[1] = tested on: Acinetobacter calcoaceticus ATCC15473; test: MIC, doubling dilution method (NCCLS), Muller-Hinton agar; assay type: cell-based; conditions: 20 hours at 37°C
Protocol: (§1) Antibiotic activities of the crystalline compound obtained in Example 1 were evaluated by way of determining the minimum inhibitory concentration(MIC) for the microorganisms listed in Table 2 in vitro.
(§2) The […] was determined in accordance with the doubling dilution method(NCCLS). After the test compound was dispersed in a Muller-Hinton agar medium, the medium was inoculated with 2µl of a test strain having 10⁷ CFU/ml and, then, incubated for 20 hours at 37°C.
(§3) For comparison, antibiotic abilities of the amorphous formula(I) cephalosporin obtained in Preparation Example were also determined as above; and are shown in Table 2.

[2] = tested on: Bacillus cereus ATCC11778; test: as above; assay type: cell-based; conditions: 20 hours at 37°C
Protocol: as §1, §2, §3

[3] = tested on: Bacillus megaterium ATTCC9885; test: as above; assay type: cell-based; conditions: Priestia megaterium, 20 hours at 37°C
Protocol: as §1, §2, §3

[4] = tested on: Citrobacter freundii ATCC8090; test: as above; assay type: cell-based; conditions: 20 hours at 37°C
Protocol: as §1, §2, §3

[5] = tested on: Enterobacter aerogenes ATCC29751; test: as above; assay type: cell-based; conditions: 20 hours at 37°C
Protocol: as §1, §2, §3

[6] = tested on: Enterobacter cloacae ATCC27508; test: as above; assay type: cell-based; conditions: 20 hours at 37°C
Protocol: as §1, §2, §3

[7] = tested on: Escherichia coli ATCC10536; test: as above; assay type: cell-based; conditions: 20 hours at 37°C
Protocol: as §1, §2, §3

[8] = tested on: Escherichia coli ATCC25922; test: as above; assay type: cell-based; conditions: 20 hours at 37°C
Protocol: as §1, §2, §3

[9] = tested on: Klebsiella pneumoniae ATCC10031; test: as above; assay type: cell-based; conditions: 20 hours at 37°C
Protocol: as §1, §2, §3

[10] = tested on: Micrococcus luteus ATCC9341; test: as above; assay type: cell-based; conditions: 20 hours at 37°C
Protocol: as §1, §2, §3

[11] = tested on: Morganella morganii ATCC8076h; test: as above; assay type: cell-based; conditions: 20 hours at 37°C
Protocol: as §1, §2, §3

[12] = tested on: Proteus mirabilis ATCC25933; test: as above; assay type: cell-based; conditions: 20 hours at 37°C
Protocol: as §1, §2, §3

[13] = tested on: Proteus vulgaris ATCC6059; test: as above; assay type: cell-based; conditions: 20 hours at 37°C
Protocol: as §1, §2, §3

[14] = tested on: Providencia rettgeri ATCC9250; test: as above; assay type: cell-based; conditions: 20 hours at 37°C
Protocol: as §1, §2, §3

[15] = tested on: Pseudomonas aeruginosa ATCC10145; test: as above; assay type: cell-based; conditions: 20 hours at 37°C
Protocol: as §1, §2, §3

[16] = tested on: Pseudomonas aeruginosa ATCC25619; test: as above; assay type: cell-based; conditions: 20 hours at 37°C
Protocol: as §1, §2, §3

[17] = tested on: Pseudomonas aeruginosa ATCC27853; test: as above; assay type: cell-based; conditions: 20 hours at 37°C
Protocol: as §1, §2, §3

[18] = tested on: Salmonella typhimurium ATCC14028; test: as above; assay type: cell-based; conditions: 20 hours at 37°C
Protocol: as §1, §2, §3

[19] = tested on: Serratia marcescens ATCC27117; test: as above; assay type: cell-based; conditions: 20 hours at 37°C
Protocol: as §1, §2, §3

[20] = tested on: Shigella flexneri ATCC11836; test: as above; assay type: cell-based; conditions: 20 hours at 37°C
Protocol: as §1, §2, §3

[21] = tested on: Shigella sonnei ATCC11060; test: as above; assay type: cell-based; conditions: 20 hours at 37°C
Protocol: as §1, §2, §3

[22] = tested on: Staphylococcus aureus ATCC10537; test: as above; assay type: cell-based; conditions: 20 hours at 37°C
Protocol: as §1, §2, §3

[23] = tested on: Staphylococcus aureus ATCC6538p; test: as above; assay type: cell-based; conditions: 20 hours at 37°C
Protocol: as §1, §2, §3

[24] = tested on: Streptococcus epidermidis ATCC12228; test: as above; assay type: cell-based; conditions: 20 hours at 37°C
Protocol: as §1, §2, §3

[25] = tested on: Streptococcus faecalis ATCC29212; test: as above; assay type: cell-based; conditions: 20 hours at 37°C
Protocol: as §1, §2, §3

[26] = Heat-stability test: storage at 50°C, decomposition by liquid chromatography; assay type: physicochemical
Protocol: The crystalline hydrate of the compound obtained in Example 1 and the amorphous cephalosporin obtained in Preparation Example were stored at 50°C. After the respective periods of one week and two weeks, the heat stability of the compounds was measured by determining their level of decomposition through the use of liquid chromatography.

Compound | MIC [1] | MIC [4] | MIC [5] | MIC [7] | MIC [8] | MIC [9] | MIC [13] | MIC [16] | MIC [17] | MIC [18] | MIC [19] | MIC [21] | Decomposition Rate ([26]; storage period (50°C): 0) | Decomposition Rate ([26]; storage period (50°C): 1 week) | Decomposition Rate ([26]; storage period (50°C): 2 week) | also measured
Cc1c(N)nc(SCC2=C(C(=O)[O-])N3C(=O)C(NC(=O)/C(=N\OC(C)(C)C(=O)O)c4csc(N)n4)[C@H]3SC2)[n+](N)c1N (stereo partly shown) [Test Compound, 7-[(Z)-2-(2-aminothiazole-4-yl)-2-(2-carboxyprop-2-oxyimino)acetamido]-3-(5-methyl-1,4,6-triaminopyrimidinium-2-yl)thiomethyl-3-cephem-4-carboxylate] | 1 µg/mL (≈ 1.57 µM) | 0.016 µg/mL (≈ 0.0251 µM) | 0.25 µg/mL (≈ 0.391 µM) | 0.031 µg/mL (≈ 0.0485 µM) | 0.031 µg/mL (≈ 0.0485 µM) | 0.016 µg/mL (≈ 0.0251 µM) | 0.031 µg/mL (≈ 0.0485 µM) | 0.5 µg/mL (≈ 0.783 µM) | 0.5 µg/mL (≈ 0.783 µM) | 0.063 µg/mL (≈ 0.0986 µM) | 0.063 µg/mL (≈ 0.0986 µM) | 0.031 µg/mL (≈ 0.0485 µM) | 0% | 0.4% | 0.9% | MIC ([2]; Bacillus cereus, ATCC11778, 20 h, read-out: MIC): 64 µg/mL (≈ 100 µM); MIC [3]: 0.13 µg/mL (≈ 0.204 µM); MIC ([6]; Enterobacter cloacae, ATCC27508, 20 h, read-out: MIC): ≤ 0.008 µg/mL; MIC ([10]; Micrococcus luteus, ATCC9341, 20 h, read-out: MIC): 0.25 µg/mL (≈ 0.391 µM); MIC ([11]; read-out: MIC): ≤ 0.008 µg/mL; MIC ([12]; Proteus mirabilis, ATCC25933, 20 h, read-out: MIC): 0.016 µg/mL (≈ 0.0251 µM); MIC ([14]; read-out: MIC): ≤ 0.008 µg/mL; MIC ([15]; Pseudomonas aeruginosa, ATCC10145, 20 h, read-out: MIC): 1 µg/mL (≈ 1.57 µM); MIC ([20]; Shigella flexneri, ATCC11836, 20 h, read-out: MIC): 0.016 µg/mL (≈ 0.0251 µM); MIC ([22]; read-out: MIC): 2 µg/mL (≈ 3.13 µM); MIC ([23]; read-out: MIC): 4 µg/mL (≈ 6.26 µM); MIC ([24]; Streptococcus, ATCC12228, 20 h, read-out: MIC): 1 µg/mL (≈ 1.57 µM); MIC ([25]; Enterococcus faecalis, read-out: MIC): > 128 µg/mL
Cc1c(N)nc(SCC2=C(C(=O)[O-])N3C(=O)C(NC(=O)/C(=N\OC(C)(C)C(=O)O)c4csc(N)n4)[C@H]3SC2)[n+](N)c1N (stereo partly shown) [Amorphous Compound, 7-[(Z)-2-(2aminothiazole-4-yl)-2-(2-carboxyprop-2-oxyimino)acetamido]-3-(5-methyl-1,4,6-triamino-pyrimidinium-2-yl)thiomethyl-3-cephem-4-carboxylate, reference compound] | 4 µg/mL (≈ 6.26 µM) | 0.063 µg/mL (≈ 0.0986 µM) | 1 µg/mL (≈ 1.57 µM) | 0.063 µg/mL (≈ 0.0986 µM) | 0.13 µg/mL (≈ 0.204 µM) | 0.063 µg/mL (≈ 0.0986 µM) | 0.063 µg/mL (≈ 0.0986 µM) | 2 µg/mL (≈ 3.13 µM) | 2 µg/mL (≈ 3.13 µM) | 0.13 µg/mL (≈ 0.204 µM) | 0.13 µg/mL (≈ 0.204 µM) | 0.063 µg/mL (≈ 0.0986 µM) | 0% | 4.2% | 5.2% | MIC [2]: 128 µg/mL (≈ 200 µM); MIC [6]: 0.016 µg/mL (≈ 0.0251 µM); MIC [10]: 0.5 µg/mL (≈ 0.783 µM); MIC [11]: <=0.008 mcg/ml; MIC [12]: 0.031 µg/mL (≈ 0.0485 µM); MIC [14]: <=0.008 mcg/ml; MIC [15]: 2 µg/mL (≈ 3.13 µM); MIC [20]: 0.031 µg/mL (≈ 0.0485 µM); MIC [22]: 2 µg/mL (≈ 3.13 µM); MIC [23]: 4 µg/mL (≈ 6.26 µM); MIC [24]: 2 µg/mL (≈ 3.13 µM); MIC [25]: >128 µg/mL
